Source: patent publication US20200068887A1, “TREATMENT FOR REMOVING ECTOPARASITES FROM FISH” (priority 2016, published 2020)
Values joined by “and” are separate entries in the source; they are usually repeats but may differ in a detail not shown here. Equal values may be shown once.

Tests used:
[1] = tested on: farmed Atlantic salmon; assay: Observation of fish during field treatment; format: in vivo; details: 20 ppm, 60 minutes, well boat
Description: (§1) The effectiveness of imidacloprid against pre-adult and adult stages of L. salmonis and Caligus sp. infections on farmed Atlantic salmon was investigated by performing pre- and post-treatment sea lice counts on salmon undergoing a treatment with imidacloprid. This trial was conducted at a commercial salmon farm in Norway. The salmon were pumped onto a well boat and were exposed to 20 ppm imidacloprid for 60 minutes. The average weight of the salmon was 3.5 kg and the average number of salmon per pen was 180,000. 30 fish per pen were assessed for L. salmonis and Caligus sp., and the number of each L. salmonis life stage found was recorded. This was performed within 24 hours prior to treatment, and within 24 hours after treatment.
(§2) The numbers of sea lice observed per fish for this trial for each of the four tested pens according to sea lice life cycle state, pre- or post-administration of active are presented in Table 5.

[2] = tested on: salmon louse; assay: Bath treatment of lice-infected Atlantic salmon, percent lice removed; format: in vivo; details: 12° C.
Description: To determine the concentration- and time-dependence of imidacloprid treatment in vivo, Atlantic salmon (average of 320.9 g) were challenged with imidacloprid in seawater (32.5%0 salinity) at 12° C. The water level in the tank was lowered and aeration was employed during administration of the active. The salmon louse copepodid culture was counted and adjusted to obtain a target level of around 40 copepodids per fish in the challenge tank at each challenge time point.
Salmon lice on the fish were counted using standard methods. Only lice on the fish's outer surface, not including gills and oral/buccal cavities, were investigated.
(§3) Numbers of dissociated lice in tank water or attached to the tank walls were recorded. Lice in the tank water were collected and assessed for ability to attach by suction to a smooth plastic surface immediately after treatment and again after 30-60 minutes (to assess possible revival). Live and viable lice were also collected from the mock-treated control groups for reference and held in revival chambers for the same period of time to assess the system.
The test solutions of the active were prepared (added and homogenised with seawater) and administered to a treatment volume of 40 litres.
Three sea lice-infected fish from the holding tank were randomly gathered and carefully steered into a barrel forming an inner compartment (diameter=34.5-40 cm; height=54 cm) that was submerged in the tank and in which the base has been replaced with a plastic mesh screen with 9 mm^2 square holes.
The fish were transferred to the inner compartment within 3 minutes of each test start. The inner compartment was suspended/submerged in the holding tank pending treatment. Treatments and mock treatments were implemented by draining the inner compartment with fish and transferring it to a barrel containing the test solution. Treatments/mock treatments were performed in static water with aeration/oxygenation. Aeration was adjusted to set the oxygen saturation to 70-100%.
To terminate the treatment, the inner compartment with treated fish was lifted to the surface and drained, then fish were transferred directly and without water to a second basin with a lethal overdose of anaesthetic and left until dead. All lice remaining on these fish and lice that fell off in the anaesthetic bath were recorded.
Exposure times with imidacloprid ranged from 3 to 60 minutes, and doses ranged from 20 ppm to 200 ppm.
Negative control groups at 3- and 60 minutes were duplicated. Superscript numbers denote the total number of lice on the 3 fish in each test.
By way of comparison, fish infected with sea lice from the same sources were treated with azamethiphos at 0.1 mg/l and deltamethrin at 0.2 μ/l for 30 minutes, per the recommended dosage regimes. Treatments were carried out under similar conditions as those treated with imidacloprid. A mock-treatment control was also administered. Each treatment condition was administered in duplicate.
Superscript numbers denote the total number of lice on the 3 fish in each test.

[3] = tested on: L. salmonis; assay: Field well boat treatment, pre- vs post-treatment sea lice counts; format: in vivo; details: 20 ppm 60 min on well boat, within 24 hours after treatment, 30 fish per pen; pens A-D
Description: as §1
These assessments were made on four pens of salmon in total. Prior to treatment, fish were crowded within the pen to enable them to be pumped into the well boat, which is where the pre-treatment sea lice assessments were conducted. The post-treatment sea lice assessments were made by removing fish from the outflow pipe on the well boat.
At all time points, 3 fish were removed and placed into an anaesthetic bath. This was repeated 10 times until 30 fish had been assessed.
as §2

[4] = tested on: sea lice; assay: Comparison on isolated sea lice (in vitro bath exposure); details: 60 min exposure; for % effect / Immobilised / Live: registered approx. 20 h after end of exposure
Description: Both pre-adult and adult stages (mobile stages) of both sexes were used, and they were equally distributed among groups. The sea lice were exposed to imidacloprid for 60 minutes, azamethiphos for 60 minutes and deltamethrin for 30 minutes in one litre baths at a range of concentrations (Tables 6, 7 and 8). The sea lice were transferred to clean aerated seawater after treatment. The temperature of the seawater during the experiment was 12° C., but during exposure the temperature raised to approx. 14° C. in regimes exposed for 60 min. (imidacloprid and azamethiphos) and to 13° C. for the regime exposed in 30 minutes (deltamethrin).
The numbers of live and immobilised (including killed) lice in each regime were registered approximately 20 h after end of exposure. Each louse was individually investigated.

[5] = tested on: salmon louse; assay: Revival rates of sea lice after bath treatment; format: in vivo
Description: as §3
Remaining lice in the treatment bath were strained through a plankton mesh (2 mm pore size) that was suspended in a water bath with clean seawater. The lice in this collector were transferred to a plastic beaker (1 litre) and then again into a revival tube (5 cm diameter; 10 cm length). Lice that are able to attach to the walls of the treatment tanks or beaker within 3 minutes of completion of each test were scored as viable.

[6] = isolated sea lice, immobilisation approx. 20 h after exposure

Q: `O=[N+]([O-])NC1=NCCN1Cc1ccc(Cl)nc1` [imidacloprid] was tested. Which “adverse behaviours of fish throughout treatment” value [1] did it give?
A: The value was “no adverse behaviours seen”.

Q: What about the “percentage lice removed from fish after treatment relative to total numbers of lice” value ([2]; 20 ppm, 30 minutes, total 36 lice on 3 fish) of the same compound?
A: The value was 63.9^36%.

Q: And the “percentage lice removed from fish after treatment relative to total numbers of lice” value ([2]; 20 ppm, 60 minutes, total 27 lice on 3 fish)?
A: Its value is 74.1^27%.

Q: And the “percentage lice removed from fish after treatment relative to total numbers of lice” value ([2]; 50 ppm, 30 minutes, total 23 lice on 3 fish)?
A: Its value is 91.3^23%.

Q: And the “percentage lice removed from fish after treatment relative to total numbers of lice” value ([2]; 100 ppm, 3 minutes, total 43 lice on 3 fish)?
A: Its value is 7.0^43%.

Q: What about the “percentage lice removed from fish after treatment relative to total numbers of lice” value ([2]; 100 ppm, 15 minutes, total 38 lice on 3 fish) of the same compound?
A: Its value is 73.7^38%.

Q: And the “percentage lice removed from fish after treatment relative to total numbers of lice” value ([2]; 200 ppm, 5 minutes, total 34 lice on 3 fish)?
A: Its value is 55.9^34%.

Q: And the “percentage lice removed from fish after treatment relative to total numbers of lice” value ([2]; 200 ppm, 15 minutes, total 47 lice on 3 fish)?
A: Its value is 91.5^47%.

Q: What about the “sea lice per fish, Adult Female, Post” value [3] of the same compound?
A: Its value is 0.0.

Q: What about the “sea lice per fish, Adult Male, Post” value [3] of the same compound?
A: The value was 0.0.

Q: And the “sea lice per fish, Gravid Female, Post” value [3]?
A: Its value is 0.0.

Q: And the “sea lice per fish, Pre-Adult Female, Post” value [3]?
A: The value was 0.0.

Q: And the “sea lice per fish, Pre-Adult Male, Post” value [3]?
A: Its value is 0.0.

Q: And the “sea lice per fish, Total, Post” value [3]?
A: Its value is 0.0.

Q: What about the “% effect” value ([4]; imidacloprid 5 ppm) of the same compound?
A: The value was 30%.

Q: What about the Immobilised ([4]; imidacloprid 5 ppm) of the same compound?
A: Its Immobilised is 3.

Q: What about the Live ([4]; imidacloprid 5 ppm) of the same compound?
A: Its Live is 7.

Q: And the “% effect” value ([4]; imidacloprid 10 ppm)?
A: The value was 40% and 50%.

Q: And the Immobilised ([4]; imidacloprid 10 ppm)?
A: Its Immobilised is 4 and 5.

Q: What about the Live ([4]; imidacloprid 10 ppm) of the same compound?
A: The Live was 6 and 5.

Q: What about the “% effect” value ([4]; imidacloprid 15 ppm) of the same compound?
A: The value was 100%.

Q: What about the Immobilised ([4]; imidacloprid 15 ppm) of the same compound?
A: Its Immobilised is 10.

Q: And the Live ([4]; imidacloprid 15 ppm)?
A: Its Live is 0.

Q: What about the “% effect” value ([4]; imidacloprid 20 ppm) of the same compound?
A: Its value is 100%.

Q: And the Immobilised ([4]; imidacloprid 20 ppm)?
A: Its Immobilised is 10.

Q: What about the Live ([4]; imidacloprid 20 ppm) of the same compound?
A: The Live was 0.

Q: What about the “% effect” value ([4]; imidacloprid 30 ppm) of the same compound?
A: The value was 100%.

Q: And the Immobilised ([4]; imidacloprid 30 ppm)?
A: Its Immobilised is 10.

Q: And the Live ([4]; imidacloprid 30 ppm)?
A: The Live was 0.

Q: And the “estimated EC90 value” [4, 6]?
A: The value was 14.4 ppm.

Q: What about the “estimated ECso value” [4, 6] of the same compound?
A: The value was 7.6 ppm.

Q: And the “% active at 30-60 min. post-treatment, Attached lice collected from fish” value ([5]; 20 ppm 30 min, n lice 9)?
A: The value was 11.1%.

Q: And the “% active at 30-60 min. post-treatment, Detached lice collected from tank water” value (“% active … from tank water” below) ([5]; 20 ppm 30 min, n lice 23)?
A: Its value is 4.3%.

Q: What about the “% active … from tank water” value ([5]; 20 ppm 60 min, n lice 20) of the same compound?
A: The value was 0.0%.

Q: And the “% active … from tank water” value ([5]; 50 ppm 30 min, n lice 31)?
A: Its value is 0.0%.

Q: And the “% active … from tank water” value ([5]; 100 ppm 3 min, n lice 3)?
A: The value was 33.3%.

Q: What about the “% active … from tank water” value ([5]; 100 ppm 15 min, n lice 28) of the same compound?
A: Its value is 0.0%.

Q: What about the “% active at 30-60 min. post-treatment, Attached lice collected from fish” value ([5]; 200 ppm 5 min, n lice 13) of the same compound?
A: Its value is 0.0%.

Q: What about the “% active … from tank water” value ([5]; 200 ppm 5 min, n lice 13) of the same compound?
A: Its value is 0.0%.

Q: What about the “% active … from tank water” value ([5]; 200 ppm 15 min, n lice 43) of the same compound?
A: Its value is 0.0%.
